Key:
IL-8 [1] = test: LPS-induced IL-8 production in monocytes; format: cell-based; details: Monocyte; Monocytes (LPS); 100 uM; read-out: Percent Inhibition of IL-8
Excerpt: (§1) DHE and IE both have inhibitory effects on the production of the inflammatory mediators in monocytes.

IL-12 [2] = test: LPS-induced IL-12 production in monocytes; format: cell-based; details: Monocyte, read-out: Percent Inhibition of IL-12
Excerpt: as §1

PGE2 = test: UV-induced PGE2 production in keratinocytes (ELISA); format: cell-based, human; details: Homo sapiens, Keratinocyte; Keratinocytes (UV); 100 uM; read-out: Percent Inhibition of PGE2
Method: (§2) In one study, various concentrations of DHE were added to culture medium and these media were placed on human fibroblast cell cultures (results shown in FIG. 1). Cells were either not induced or induced with UVB radiation to stimulate cytokine/PGE-2 production. At 24 hours after treatment, the cell culture medium was removed and assayed by ELISA methods for the expression of PGE-2, various cytokines and chemokines.
When similar experiments were carried out with human keratinocytes, DHE was again found to markedly suppress the UVR induction of PGE-2, with a concentration of 50 uM inhibiting the production of PGE-2 by over 60% (results shown in FIG. 2). […] Further, since PGE-2 is known to be a principal factor in the development of actinic keratosis and skin cancer, DHE can also be used in treating these conditions.
DHE and IE both have inhibitory effects on production of the inflammatory mediators in keratinocytes.

tyrosinase = test: Western immunoblot of tyrosinase abundance in human melanocyte extracts; format: cell-based
Excerpt: FIGS. 14-17 show the skin-lightening effects of topically-applied formulations of isoeugenol and its ester isoeugenol acetate (a.k.a. isoeugenyl acetate) in the treatment of hyperpigmented areas in the skin, wherein a reduction of melanin pigment in the skin is caused by the topical application of the formulations. In addition to blocking a post-tyrosinase step in melanin synthesis, IE and IE acetate can inhibit the expression of the tyrosinase protein in human melanocytes. […] If the cell extracts contain tyrosinase when an aliquot of extract is placed in a tube containing L-DOPA (a tyrosinase substrate) in buffer, the enzyme will convert the DOPA to melanin. The melanin will appear brownish-black in the assay tube. If IE or IE-acetate has inhibited tyrosinase synthesis in melanocytes, then the extracts from these cells will contain no enzyme and will not be able to produce melanin from DOPA in the assay tube. […] In this assay, cell extracts from human melanocytes either left untreated or treated with 200 micromolar of either IE or isoeugenol acetate for 9 days are run on SDS polyacrylamide electrophoresis gels to separate tyrosinase from other proteins. The tyrosinase in the gel is then blotted to a membrane and the tyrosinase detected by staining with a specific anti-tyrosinase antibody. The antibody-bound tyrosinase is then visualized by chemiluminescence.

PGE-2 [3] = test: UV-induced PGE-2 production in fibroblasts (ELISA); format: cell-based, human; details: Homo sapiens, Fibroblast; Fibroblasts (UV); 100 uM; read-out: Percent Inhibition of PGE-2
Method: as §2
As is shown in FIG. 1, UV radiation (UVR) treatment of fibroblasts results in a 6 fold increase in PGE-2.
(§3) DHE and IE both have inhibitory effects on the production of the inflammatory mediators in fibroblasts.

IL-6 [4] = test: UV-induced IL-6 production in fibroblasts (ELISA); format: cell-based, human; details: Homo sapiens, Fibroblast, read-out: Percent Inhibition of IL-6
Method: as §2, §3

IL-6 [5] = test: IL-1-induced IL-6 production in fibroblasts (ELISA); format: cell-based, human; details: Homo sapiens, Fibroblast, Fibroblasts (IL-1), read-out: Percent Inhibition of IL-6
Method: as §2, with “Cells were either not induced or induced with UVB radiation to stimulate cytokine/PGE-2 production.” left out
as §3

elastin mRNA = test: Elastin mRNA in human dermal fibroblasts by RT-PCR; format: cell-based; details: 72 hours
Excerpt: The presently claimed and disclosed inventive concept(s) further contemplates use of various DHE, IE and EV compositions and salts, esters, ethers, and derivatives thereof to mitigate the effects of aging on the skin. For all aging studies, normal human fibroblast cell cultures were used. These cells normally produce collagen, elastin and hyaluronic acid. As the skin ages, the fibroblasts in the dermis lose their ability to produce these three key components of skin, and the skin consequently loses elasticity, thickness and smooth texture. […] There are about 13 of these enzymes, collectively referred to as MMPs (matrix metalloproteinases). One of the principal MMPs, MMP-1, is responsible for collagen degradation. […] The image is from an electrophoresis gel of DNA amplified by PCR from fibroblast mRNA. This gel was analyzed and the density of each band quantified by image analysis software.

PGE-2 [6] = test: IL-1-induced PGE-2 production in fibroblasts (ELISA); format: cell-based, human; details: Homo sapiens, Fibroblast, Fibroblasts (IL-1), read-out: Percent Inhibition of PGE-2
Method: as §2, with “Cells were either not induced or induced with UVB radiation to stimulate cytokine/PGE-2 production.” left out
as §3

[7] = system: human melanocyte cultures; test: Pigment in human melanocyte cultures; format: cell-based; details: treated for 9 days
IL-8 [8] = test: TPA-induced IL-8 production in keratinocytes (ELISA); format: cell-based, human; details: Homo sapiens, Keratinocyte, read-out: Percent Inhibition of IL-8
IL-8 [9] = test: IL-1-induced IL-8 production in fibroblasts (ELISA); format: cell-based, human; details: Homo sapiens, Fibroblast, Fibroblasts (IL-1), read-out: Percent Inhibition of IL-8
IL-12 [10] = test: TNF-α-induced IL-12 production in monocytes; format: cell-based; details: Monocyte, read-out: Percent Inhibition of IL-12
Excerpt: as §1

TIMP-1 = TIMP-1 mRNA in fibroblasts by PCR; format: cell-based, human
Excerpt: The presently claimed and disclosed inventive concept(s) further contemplates use of various DHE, IE and EV compositions and salts, esters, ethers, and derivatives thereof to mitigate the effects of aging on the skin. For all aging studies, normal human fibroblast cell cultures were used. These cells normally produce collagen, elastin and hyaluronic acid. As the skin ages, the fibroblasts in the dermis lose their ability to produce these three key components of skin, and the skin consequently loses elasticity, thickness and smooth texture. In addition, as fibroblasts age, they increase the expression of certain enzymes that destroy collagen and elastin. There are about 13 of these enzymes, collectively referred to as MMPs (matrix metalloproteinases). One of the principal MMPs, MMP-1, is responsible for collagen degradation. For experiments herein to determine the effects of DHE, IE and EV on collagen, elastin and hyaluronic acid, fibroblasts were treated with the compounds for 72 hours, mRNA was then isolated, and analyzed for abundance by RT-PCR (Reverse transcriptase-Polymerase Chain Reaction).
Fibroblasts in the skin not only produce enzymes (MMPs) that destroy the skin matrix but they also produce proteins (Tissue Inhibitors of Metalloproteinases, i.e., TIMPS) that inhibit these enzymes. There are several TIMPs, but one that is most important for inhibiting MMPs is TIMP-1. […] Shown in FIG. 11 is PCR data showing the up-regulation of TIMP-1 mRNA by these compounds.

CC=Cc1ccc(O)c(OC)c1 [IE, isoeugenol] was tested, and the inhibition at 100 µM (IL-8 [1]) was 75%, the inhibition at 100 µM (IL-12 [2]) was 80% and the inhibition at 100 µM (PGE2) was 76%. For the same compound, the “tyrosinase abundance (relative densitometric units)” value (tyrosinase; human melanocyte extracts, 200 μM, 9 days, control approximately 7.25 RDU) was “about 3 RDU”, the “tyrosinase present (western immunoblot)” value (tyrosinase; human melanocytes treated with 200 micromolar for 9 days) was “almost no detectable tyrosinase” and the inhibition at 100 µM (PGE-2 [3]) was 77%. The inhibition at 100 µM (IL-6 [4]) was 39%, the inhibition at 100 µM (IL-6 [5]) was 53% and the “elastin levels (elastin mRNA)” value (elastin mRNA) was “increase”. For the same compound, the inhibition at 100 µM (PGE-2 [6]) was 81%, the “pigment in human melanocyte cultures” value [7] was “loss of pigment” and the inhibition at 100 µM (IL-8 [8]) was 75%. The inhibition at 100 µM (IL-8 [9]) was 98%, the inhibition at 100 µM (IL-12 [10]) was 100% and the “production of TIMP-1 (TIMP-1 mRNA)” value (TIMP-1) was “significantly stimulate”.
